85 compounds from PubChem BioAssay AID2658 (Sanford-Burnham Center for Chemical Genomics, 2010) can be followed below.

“And” between values parts separate entries of the source, which are not always exact repeats. Equal entries are not always repeated. The source made the active and inactive calls. No rule for the calls is given here.

This assay addresses Ubiquitin-conjugating enzyme E2 N (Homo sapiens) (UniProt P61088). The assay is described as follows: inhibition of Ubc13-driven ubiquitin chain assembly – biochemical, TR-FRET, Uev1a, selectivity assay, SAR follow-up (AID 2658). The note with it: Ubc13/Uev1a polyubiquitination, in vitro. (In general: In TR-FRET formats the signal depends on donor and acceptor labels being close together.)

Chain of Ubiquitin-conjugating enzyme E2 N (Homo sapiens) (P61088 whole entry, looked up): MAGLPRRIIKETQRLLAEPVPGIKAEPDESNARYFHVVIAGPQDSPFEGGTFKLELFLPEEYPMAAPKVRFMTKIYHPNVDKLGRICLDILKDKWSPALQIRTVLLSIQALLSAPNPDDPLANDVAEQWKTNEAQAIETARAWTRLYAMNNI

By IC50 is commonly meant the point on the concentration scale where inhibition reaches its midpoint. For the compound `O=C(N=Nc1c(O)[nH]c2ccc([N+](=O)[O-])cc12)c1ccccc1Cl`, the IC50 was > 100 µM (inactive).

`Cc1ccsc1C=Nc1ccc(F)cc1`: the IC50 is > 100 µM (inactive).

Take `COc1ccc(-n2c(NC(=O)c3ccc(Br)o3)c(C#N)c3nc4ccccc4nc32)cc1`: the IC50 is > 100 µM (inactive).

Turning to `Cc1ccc(O)c(N=Cc2cccs2)c1`, the IC50 was > 100 µM (inactive).

As to `COc1ccc(CCNC(=O)COC(=O)c2cc(-c3ccco3)nc3ccccc23)cc1OC`, the IC50 was 92.6 µM.

For `CCCCn1c(NC(=O)c2ccccc2Cl)c(C#N)c2nc3ccccc3nc21`, the IC50 is > 100 µM (inactive).

Take `O=C(N/N=C/c1cccc(F)c1)c1cc(-c2ccco2)nc2ccccc12`: the IC50 is 25.8 µM and 23.3 µM.

Turning to `C/C(=N\OCc1nc2ccccc2c(=O)n1/N=C/c1ccc(Cl)cc1)c1ccccc1`, the IC50 was > 100 µM (inactive).

In the case of `O=C(OCC(=O)N1CCN(C(=O)c2ccco2)CC1)c1cc(-c2ccco2)nc2ccccc12`, the IC50 was 93.1 µM.

In the case of `C=CCC(Nc1ccccc1)C12C=CC(O1)C(C(=O)OC)=C2C(=O)OC` (stereo not given), the IC50 was > 100 µM (inactive).

`COc1ccccc1CNC(=O)CCOC(=O)c1cc(-c2ccco2)nc2ccccc12`: the IC50 was > 100 µM (inactive).

Turning to `COc1ccc(CNC(=O)COC(=O)c2cc(-c3cccs3)nc3ccccc23)cc1`, the IC50 is 33.1 µM.

On to `COc1ccccc1CNC(=O)COC(=O)c1cc(-c2cccs2)nc2ccccc12`, for which the IC50 was 82.5 µM.

Consider `O=C(COC(=O)c1cc(-c2ccco2)nc2ccccc12)NCc1ccccc1Cl`, for which the IC50 was > 100 µM (inactive).

For `Cc1ccccc1NC(=O)Cn1c(O)c(N=NC(=O)c2ccccc2O)c2ccccc21`, the IC50 was 98 µM.

As to `Cc1cccc(Nc2cc3ccccc3c(=O)[nH]2)c1`, the IC50 is > 100 µM (inactive).

On to `O=C(O)c1ccc(C2Nc3ccc(F)cc3C3C=CCC32)cc1` (stereo not given), for which the IC50 is > 100 µM (inactive).

For `O=C(NNc1cc(N2CCCC2)nc(N2CCCC2)n1)c1ccc([N+](=O)[O-])cc1`, the IC50 was > 100 µM (inactive).

Consider `O=C(Nc1ccccc1N1CCOCC1)c1cc(-c2ccco2)nc2ccccc12`, for which the IC50 was > 100 µM (inactive).

In the case of `C=CCn1c(NC(=O)c2ccccc2Cl)c(C#N)c2nc3ccccc3nc21`, the IC50 was > 100 µM (inactive).

As for `O=C(O)c1ccc(NS(=O)(=O)c2ccc3c(c2)C2C=CCC2C(c2ccccc2F)N3)cc1` (stereo not given), the IC50 is > 100 µM (inactive).

For `COc1ccc(CNC(=O)COC(=O)c2cc(-c3ccco3)nc3ccccc23)c(OC)c1`, the IC50 is > 100 µM (inactive).

Consider `O=C1c2oc3ccccc3c(=O)c2C(c2ccccc2)N1c1nccs1` (stereo not given), for which the IC50 was > 100 µM (inactive).

`CCN(CC)C(=O)COC(=O)c1cc(-c2ccco2)nc2ccccc12`: the IC50 was > 100 µM (inactive).

`O=S(=O)(Nc1ccccc1F)c1ccc2c(c1)C1C=CCC1C(c1ccc(F)cc1)N2` (stereo not given): the IC50 was > 100 µM (inactive).

With `Cc1ccsc1C=Nc1ccc(C(N)=O)cc1`, the IC50 is > 100 µM (inactive).

`COc1ccc(CCNC(=O)c2cc(-c3ccco3)nc3ccccc23)cc1`: the IC50 was 65 µM.

Consider `CC(=O)NC1C(=O)N(CCN2CCOCC2)c2ccc(F)cc21` (stereo not given), for which the IC50 is > 100 µM (inactive).

Regarding `CCCCn1c(NS(=O)(=O)c2ccccc2)c(S(=O)(=O)c2ccc(C)cc2)c2nc3ccccc3nc21`, the IC50 was > 100 µM (inactive).

In the case of `CCCCn1c(NC(=O)c2ccc(Br)o2)c(S(=O)(=O)c2ccccc2)c2nc3ccccc3nc21`, the IC50 was > 100 µM (inactive).

Take `CCNC(=O)COC(=O)c1cc(-c2ccco2)nc2ccccc12`: the IC50 was > 100 µM (inactive).

On to `Cc1ccc(S(=O)(=O)N(C)C)cc1NC(=O)c1cc(-c2ccco2)nc2ccccc12`, for which the IC50 was > 100 µM (inactive).

`O=C1c2oc3ccccc3c(=O)c2C(c2ccc(O)cc2)N1c1nccs1` (stereo not given): the IC50 was > 100 µM (inactive).

Turning to `S=c1[nH]nc(-c2cc(-c3ccccc3)n[nH]2)n1N=Cc1c(Cl)cccc1Cl`, the IC50 is > 100 µM (inactive).

Consider `COc1ccc(C=NNc2cc(N3CCCC3)nc(N3CCCC3)n2)cc1`, for which the IC50 is 53.8 µM.

Consider `O=C(COC(=O)c1cc(-c2ccco2)nc2ccccc12)NC(=O)c1ccccc1`, for which the IC50 is 92.6 µM.

Turning to `COc1ccccc1CCNC(=O)COC(=O)c1cc(-c2ccco2)nc2ccccc12`, the IC50 is > 100 µM (inactive).

As for `COc1ccccc1NC(=O)COC(=O)c1cc(-c2ccco2)nc2ccccc12`, the IC50 was 16.7 µM and > 100 µM (inactive).

In the case of `COC(=O)c1ccc2c(c1)C1C=CCC1C(c1ccc(C(=O)O)cc1)N2` (stereo not given), the IC50 was > 100 µM (inactive).

As for `Cc1ccsc1C=Nc1ccc(O)cc1`, the IC50 was > 100 µM (inactive).

Regarding `S=c1[nH]nc(-c2cc(-c3ccccc3)n[nH]2)n1N=Cc1ccc(Br)s1`, the IC50 is > 100 µM (inactive).

In the case of `S=c1[nH]nc(-c2cc(-c3ccccc3)n[nH]2)n1N=Cc1ccc(Cl)c(Cl)c1`, the IC50 was > 100 µM (inactive).

`CCN(CC)S(=O)(=O)c1ccc(O)c(NC(=O)c2cc(-c3cc(OC)c(OC)c(OC)c3)nc3ccccc23)c1`: the IC50 is > 100 µM (inactive).

As to `O=[N+]([O-])c1ccc2[nH]c(O)c(N=NC(=S)Nc3cccnc3)c2c1`, the IC50 was > 100 µM (inactive).

Consider `COc1ccccc1COC(=O)COC(=O)c1cc(-c2ccco2)nc2ccccc12`, for which the IC50 was 68.2 µM.

Turning to `Cc1ccsc1C=Nc1ccccc1O`, the IC50 was > 100 µM (inactive).

Take `S=c1[nH]nc(-c2cc(-c3ccccc3)n[nH]2)n1N=Cc1ccccc1`: the IC50 was > 100 µM (inactive).

As to `NS(=O)(=O)c1ccc2c(c1)C1C=CCC1C(c1ccc([N+](=O)[O-])cc1)N2` (stereo not given), the IC50 was > 100 µM (inactive).

In the case of `COc1cc(C2c3c(oc4ccccc4c3=O)C(=O)N2c2nccs2)ccc1O` (stereo not given), the IC50 was > 100 µM (inactive).

As to `S=c1[nH]nc(-c2cc(-c3ccccc3)n[nH]2)n1N=Cc1cccc(Cl)c1`, the IC50 was > 100 µM (inactive).

On to `COC(=O)c1ccc(CNC(=O)COC(=O)c2cc(-c3ccco3)nc3ccccc23)cc1`, for which the IC50 was > 100 µM (inactive).

Consider `COc1ccc(CNC(=O)c2cc(-c3ccco3)nc3ccccc23)cc1`, for which the IC50 was > 100 µM (inactive).

As for `O=C(O)c1ccc2c(c1)C1C=CCC1C(c1ccc(F)cc1)N2` (stereo not given), the IC50 was > 100 µM (inactive).

With `Cc1c(Cl)cccc1NS(=O)(=O)c1ccc2c(c1)C1C=CCC1C(c1ccc(C(=O)O)cc1)N2` (stereo not given), the IC50 was > 100 µM (inactive).

As to `Cc1ccc(O)c(N=Cc2ccc(C)s2)c1`, the IC50 was > 100 µM (inactive).

With `COc1ccccc1CNC(=O)c1cc(-c2ccco2)nc2ccccc12`, the IC50 is > 100 µM (inactive).

Regarding `Cc1ccc(C2Nc3ccc(C(=O)O)cc3C3C=CCC32)cc1` (stereo not given), the IC50 was > 100 µM (inactive).

In the case of `Nc1ccc2c(c1)C1C=CCC1C(c1ccccc1)N2` (stereo not given), the IC50 was > 100 µM (inactive).

As for `Clc1ccc2c(c1)C1C=CCC1C(c1ccccc1)N2` (stereo not given), the IC50 is > 100 µM (inactive).

For `COC(=O)c1cccc(-c2ccc(C(c3c(C)[nH][nH]c3=O)c3c(C)[nH][nH]c3=O)o2)c1`, the IC50 is > 100 µM (inactive).

With `Cc1ccc(C=Nc2ccccc2C(N)=O)s1`, the IC50 was > 100 µM (inactive).

With `Cc1[nH][nH]c(=O)c1C(c1ccc(-c2ccc(F)cc2)o1)c1c(C)[nH][nH]c1=O`, the IC50 is > 100 µM (inactive).

Turning to `O=C(O)c1ccc2c(c1)C1C=CCC1C(c1ccccc1)N2` (stereo not given), the IC50 is > 100 µM (inactive).

Take `COc1ccccc1NC(=O)Cn1c(O)c(N=NC(=O)c2ccccc2O)c2ccccc21`: the IC50 was > 100 µM (inactive).

Regarding `Cc1[nH][nH]c(=O)c1C(c1ccc(-c2cccc(C(=O)O)c2)o1)c1c(C)[nH][nH]c1=O`, the IC50 was > 100 µM (inactive).

As for `CCOc1cc(C2c3c(oc4ccccc4c3=O)C(=O)N2c2nccs2)ccc1O` (stereo not given), the IC50 is > 100 µM (inactive).

`COc1ccccc1CNC(=O)COC(=O)c1cc(-c2ccco2)nc2ccccc12`: the IC50 is 60.2 µM.

`C=CCn1c(NS(=O)(=O)c2ccccc2)c(S(=O)(=O)c2ccc(C)cc2)c2nc3ccccc3nc21`: the IC50 is > 100 µM (inactive).

For `N=C(N)c1ccc2cc(OC(=O)c3ccc(N=C(N)N)cc3)ccc2c1`, the IC50 is 14 µM.

Take `COc1ccc(NC(=O)c2cc(-c3ccco3)nc3ccccc23)cc1S(=O)(=O)N1CCOCC1`: the IC50 was 53.4 µM.

Turning to `O=C(COC(=O)c1cc(-c2ccco2)nc2ccccc12)NCc1cccc(Cl)c1`, the IC50 is > 100 µM (inactive).

Consider `COc1ccccc1C(=O)NC(=O)COC(=O)c1cc(-c2ccco2)nc2ccccc12`, for which the IC50 was > 100 µM (inactive).

Take `COC(=O)c1c(-c2ccccc2)csc1NC(=O)/C=C/c1cccs1`: the IC50 was > 100 µM (inactive).

`CC(=NOCc1nc2ccccc2c(=O)n1N=Cc1cc([N+](=O)[O-])ccc1O)c1ccccc1`: the IC50 is > 100 µM (inactive).

For the compound `Fc1ccc(C2Nc3ccccc3C3C=CCC32)cc1` (stereo not given), the IC50 was > 100 µM (inactive).

Consider `COc1ccc(CNC(=O)C(C)OC(=O)c2cc(-c3ccco3)nc3ccccc23)cc1` (stereo not given), for which the IC50 was 83 µM.

For `CC(NC(=O)COC(=O)c1cc(-c2ccco2)nc2ccccc12)c1ccc(F)cc1` (stereo not given), the IC50 is 72.5 µM.

Regarding `O=C(/C=C/c1cccs1)Nc1scc(-c2ccccc2)c1C(=O)O`, the IC50 is 78.4 µM.

With `COc1ccccc1CNC(=O)CNC(=O)c1cc(-c2ccco2)nc2ccccc12`, the IC50 was > 100 µM (inactive).

In the case of `C/C(=N\OCc1nc2ccccc2c(=O)n1/N=C/c1ccccc1O)c1ccccc1`, the IC50 is > 100 µM (inactive).

Turning to `CN(Cc1ccc(F)cc1)C(=O)COC(=O)c1cc(-c2ccco2)nc2ccccc12`, the IC50 is > 100 µM (inactive).

For `COc1ccc2c(c1)C(NC(C)=O)C(=O)N2CCN1CCOCC1` (stereo not given), the IC50 is 86.1 µM.

Regarding `COc1cc(-c2n[nH]c(=S)n2/N=C/c2cccn2C)cc(OC)c1OC`, the IC50 was > 100 µM (inactive).

For the compound `COc1ccc(CNC(=O)COC(=O)c2cc(-c3ccco3)nc3ccccc23)cc1`, the IC50 is 34.6 µM.

With `Cc1ccc(N=Cc2sccc2C)cc1C`, the IC50 was > 100 µM (inactive).
